Results published in the NIST ThermoML archive (doi:10.1016/j.jct.2004.05.008).

Assay: molar heat capacity at constant pressure
Settings: 101.33 kPa

O=C1OC(=O)C2=C1CCCC2 [3,4,5,6-tetrahydrophthalic anhydride]
Settings	molar heat capacity at constant pressure [J/K/mol]
222.27 K, Crystal	111.19
223.72 K, Crystal	112.09
225.46 K, Crystal	113.46
227.04 K, Crystal	114.91
228.58 K, Crystal	116.07
230.24 K, Crystal	117.61
231.74 K, Crystal	119.05
233.19 K, Crystal	120.59
234.7 K, Crystal	122.14
236.22 K, Crystal	123.06
237.68 K, Crystal	124.72
239.17 K, Crystal	126.14
240.66 K, Crystal	127.28
242.12 K, Crystal	128.82
243.56 K, Crystal	131.28
244.92 K, Crystal	131.95
246.4 K, Crystal	132.94
247.8 K, Crystal	133.95
249.31 K, Crystal	135.13
250.75 K, Crystal	136.4
252.21 K, Crystal	137.63
253.66 K, Crystal	138.64
255.1 K, Crystal	140.01
256.48 K, Crystal	141.43
257.94 K, Crystal	143.17
259.38 K, Crystal	144.54
260.76 K, Crystal	146.26
262.22 K, Crystal	147.86
263.56 K, Crystal	149.6
264.98 K, Crystal	151.29
266.44 K, Crystal	153.66
267.8 K, Crystal	155.02
269.17 K, Crystal	156.54
270.62 K, Crystal	158.31
271.99 K, Crystal	160.29
273.83 K, Crystal	162.61
276.06 K, Crystal	165.27
278.26 K, Crystal	168.2
280.47 K, Crystal	170.86
282.77 K, Crystal	174.18
285 K, Crystal	177.2
287.13 K, Crystal	180
289.24 K, Crystal	183.15
291.4 K, Crystal	185.52
293.54 K, Crystal	188.07
295.62 K, Crystal	190.23
297.76 K, Crystal	193.49
299.9 K, Crystal	196.12
302.04 K, Crystal	198.91
304.16 K, Crystal	201.6
306.28 K, Crystal	204.33
308.44 K, Crystal	208.09
310.59 K, Crystal	210.93
312.73 K, Crystal	214.84
314.77 K, Crystal	218
316.97 K, Crystal	220.39
319 K, Crystal	224.36
321.06 K, Crystal	227.34
323.12 K, Crystal	231.9
325.11 K, Crystal	237.01
327.12 K, Crystal	241.19
329.09 K, Crystal	246.67
330.99 K, Crystal	261.9
346.46 K, Liquid	275.09
348.18 K, Liquid	275.94
350 K, Liquid	277.07
351.67 K, Liquid	278.18
353.41 K, Liquid	279.59
355.08 K, Liquid	280.65
356.67 K, Liquid	281.82
360.3 K, Liquid	284.63
